For assay [1], the target named is T1, Mitogen-activated protein kinase 14 (Homo sapiens, UniProt Q16539). In words: Inhibition of p38alpha by Cherenkov counting.
Assay [2] addresses Casein kinase I isoform delta (Oryctolagus cuniculus, UniProt P81123). In words: Inhibition of rabbit skeletal muscle CK1delta by liquid scintillation counting.
Assay [3] has as its target T2, Casein kinase I isoform delta (Homo sapiens, UniProt P48730). The assay is described as follows: Inhibition of GST-fused human full length CK1delta expressed in Escherichia coli at 25 uM.
Target sequence in this assay (P48730 whole entry, looked up, the tested form may be a part, canonical isoform): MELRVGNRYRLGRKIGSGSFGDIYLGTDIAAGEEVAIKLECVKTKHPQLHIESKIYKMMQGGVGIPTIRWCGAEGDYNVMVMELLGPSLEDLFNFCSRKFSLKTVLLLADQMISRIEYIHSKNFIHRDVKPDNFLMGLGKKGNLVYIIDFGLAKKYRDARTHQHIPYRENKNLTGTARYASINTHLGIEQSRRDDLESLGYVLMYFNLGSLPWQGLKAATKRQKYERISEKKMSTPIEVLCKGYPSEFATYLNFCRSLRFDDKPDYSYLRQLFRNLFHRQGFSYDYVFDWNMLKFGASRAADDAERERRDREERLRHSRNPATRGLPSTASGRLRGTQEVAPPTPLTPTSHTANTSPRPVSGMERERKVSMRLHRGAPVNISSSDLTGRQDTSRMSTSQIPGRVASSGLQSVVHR
Assay [4] addresses T3, Casein kinase I isoform delta (Rattus norvegicus, UniProt Q06486). The assay is described as follows: Inhibition of GST-fused rat CK1delta by Cherenkov counting in presence of 20 uM ATP.
Assay [5] concerns the target T2, Casein kinase I isoform delta. The assay is described as follows: Inhibition of recombinant CK1delta kinase domain by Cherenkov counting.
Target sequence in this assay (P48730 whole entry, the tested form may be a part, canonical isoform): as the sequence (P48730 whole entry, looked up, the tested form may be a part, canonical isoform) above
Assay [6] shares this target. The assay is described as follows: Inhibition of GST-fused human full length CK1delta expressed in Escherichia coli at 1 uM.
Target sequence in this assay (P48730 whole entry, looked up, the tested form may be a part, canonical isoform): as above
The nature of assay [7]: Cell cycle arrest in human AC1-M88 cells assessed as accumulation at G1 phase at 3.32 uM after 48 hrs by propidium iodide staining-based FACS analysis. The assay is classed as functional. For orientation: A flow cytometer gives signals particle by particle.
The nature of assay [8]: Cell cycle arrest in human AC1-M88 cells assessed as accumulation at G2 phase at 3.32 uM after 48 hrs by propidium iodide staining-based FACS analysis. Format: functional.
The nature of assay [9]: Cell cycle arrest in human AC1-M88 cells assessed as accumulation at subG1 phase at 3.32 uM after 48 hrs by propidium iodide staining-based FACS analysis. The assay is classed as functional.
Assay [10] is described as follows: Cell cycle arrest in human AC1-M88 cells assessed as accumulation at S phase at 3.32 uM after 48 hrs by propidium iodide staining-based FACS analysis. The assay is classed as functional.
Assay [11] deals with T1, Mitogen-activated protein kinase 14. Particulars: 10 uM.
Assay [12] addresses T3, Casein kinase I isoform delta.
Assay [13] addresses T2, Casein kinase I isoform delta. The assay is described as follows: Inhibition of human CK1delta.
Target sequence in this assay (P48730 whole entry, the tested form may be a part, canonical isoform): as the sequence (P48730 whole entry, looked up, the tested form may be a part, canonical isoform) above

T3 sequence (Q06486 whole entry, the tested form may be a part, canonical isoform): as the sequence (P48730 whole entry, looked up, the tested form may be a part, canonical isoform) above, with I381V counted along it
T1 sequence (Q16539 whole entry, canonical isoform): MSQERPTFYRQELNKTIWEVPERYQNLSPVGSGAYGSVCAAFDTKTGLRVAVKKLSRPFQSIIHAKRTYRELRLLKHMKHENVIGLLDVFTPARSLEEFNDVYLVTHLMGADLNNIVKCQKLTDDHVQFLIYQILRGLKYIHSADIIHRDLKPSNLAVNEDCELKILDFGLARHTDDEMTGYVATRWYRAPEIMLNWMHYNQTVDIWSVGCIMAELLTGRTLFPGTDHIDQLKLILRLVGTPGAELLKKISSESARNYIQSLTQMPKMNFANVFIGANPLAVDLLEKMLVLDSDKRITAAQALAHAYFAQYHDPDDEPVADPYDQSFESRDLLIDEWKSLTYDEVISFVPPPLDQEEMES
Chain of Casein kinase I isoform delta (Oryctolagus cuniculus, UniProt P81123) (P81123 whole entry, the tested form may be a part, canonical isoform): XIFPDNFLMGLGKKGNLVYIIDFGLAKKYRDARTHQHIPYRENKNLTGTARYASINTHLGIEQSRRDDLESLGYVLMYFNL

`CC(C)c1onc(-c2ccc(F)cc2)c1-c1ccnc(N[C@H](C)c2ccccc2)c1` gave a half-inhibitory concentration (IC50) in [1] of 450 nM.

Take `NCCNS(=O)(=O)c1ccc(Cl)c2ccncc12`: in assay [2], the half-inhibitory concentration (IC50) was 10000 nM. The same compound came in with an inhibition in assay [3] of 88%.

Take `CC(=O)Nc1cc(-c2c(-c3ccc(F)cc3)noc2C(C)C)ccn1`: the IC50 stood at 300 nM in assay [1], 330 nM in [4] and 700 nM in assay [5].

In turn, `C[S+]([O-])c1ccc(-c2nc(-c3ccc(F)cc3)c(-c3ccncc3)[nH]2)cc1` (centres undefined) displayed an inhibition in assay [6] of 92%.

In assay [6], `Oc1ccc(-c2nc(-c3ccc(F)cc3)c(-c3ccncc3)[nH]2)cc1` gave an inhibition of 79%.

For `CC(Oc1ccccc1)C(=O)Nc1cc(-c2c(-c3ccc(F)cc3)noc2C(C)C)ccn1` (racemic), the IC50 in assay [1] came out at 890 nM; in assay [4], 340 nM; in assay [5] it was 820 nM.

With `CC(C)c1onc(-c2ccc(F)cc2)c1-c1ccnc(NC2CCOCC2)c1`, the IC50 in [1] came to 60 nM; in assay [5], 2500 nM.

Regarding `CC(C)c1onc(-c2ccc(F)cc2)c1-c1ccnc(NC(=O)Cc2ccc(F)cc2)c1`, the IC50 came out at 1560 nM in [1], 90 nM in assay [4] and 110 nM in [5].

`CC(C)c1onc(-c2ccc(F)cc2)c1-c1ccnc(N[C@@H](C)c2ccccc2)c1`: the IC50 in assay [1] turned out to be 6 nM; in assay [5], 1600 nM.

As for `COc1ccc(/C=C/C(=O)Nc2cc(-c3c(-c4ccc(F)cc4)noc3C(C)C)ccn2)c(OC)c1`, the Activity in assay [7] was 33%; in assay [8] it was 14.8%; in assay [9], 34.4%; in assay [10], 14.8%. The concentration for half-maximal inhibition (IC50) was determined as 2520 nM in assay [1], 47 nM in assay [4] and 33 nM in assay [5].

In turn, `NC(=O)c1ccc(-c2nc(-c3ccc4c(c3)OCCO4)c(-c3ccccn3)[nH]2)cc1` had an inhibition in assay [11] of 62%. Moreover, in [12], the IC50 was found to be 300 nM.

With `COc1cc(OC)c(C=C2C(O)=Nc3ccccc32)c(OC)c1` [IC261], it took 1000 nM to reach half-maximal inhibition in assay [13] (IC50).

For `CCC(C)Nc1cc(-c2c(-c3ccc(F)cc3)noc2C(C)C)ccn1` (centres undefined), in assay [1], the IC50 came out at 30 nM.

Broadly, the IC50 is the concentration that inhibits the measured activity by half. Usually inhibition stands for how much of the control response was suppressed.

The values are drawn from ChEMBL document CHEMBL1155278, “3,4-Diaryl-isoxazoles and -imidazoles as potent dual inhibitors of p38alpha mitogen activated protein kinase and casein kinase 1delta” (J Med Chem, 2009).
